Laboratory results from patent US9605029B2, “Antibody-binding peptide” (NATIONAL INSTITUTE OF ADVANCED INDUSTRIAL SCIENCE AND …, priority 2013, dated 2017).
Read-outs that look alike come from different tables or passages of the source. Ends that are not written are not given here.

Columns and labels:
[1] = tested on: Fc region (Jackson ImmunoResearch Laboratories, Inc.) labeled with horseradish peroxidase (HRP); assay: ELISA of recombinant phages displaying polypeptides (Example 1, 6); format: binding, human; conditions: recombinant T7 phage displaying the polypeptide, absorbance at 415 nm
Method: 6) In this section, it will be stated as an example that the binding activity of recombinant phages transformed by nucleic acids encoding the amino acid sequences represented by SEQ ID NOs: 2 to 9 and 11 to 19 was measured by Enzyme Linked Immuno-Sorbent Assay (ELISA).
DNA molecules encoding the amino acid sequences of SEQ ID NOs: 2 to 9 and 11 to 19 were amplified by a polymerase chain reaction (PCR). PCR was carried out using KOD DNA polymerase (TOYOBO) under reaction conditions according to the accompanying manual. The amplified DNA molecules were each digested with restriction enzymes EcoRI and HindIII and ligated to 3′ terminal of g10 gene on T7 phage genomic DNA. Ligation to T7 phage genomic DNA was performed by use of a sample attached to T7Select10-3 Cloning Kit (Novagen) under the reaction conditions and in accordance with the procedure described in the accompanying T7Select (registered trade mark) System Manual. Using T7 phage genomic DNA ligated, T7 phage was packaged in a test tube by T7Select Packaging Kit (Novagen) under the reaction conditions in accordance with T7Select (registered trade mark) System Manual (Novagen). Subsequently, phage plaques were formed in accordance with T7Select (registered trade mark) System Manual (Novagen). From each of the plaques, a recombinant phage displaying the polypeptide was isolated. To MICROTEST (registered trade mark) 96 (BECTON, DICKINSON AND COMPANY), a culture solution (0.2 mL) of Escherichia coli BL5403 strain cultured in LB medium until O.D.600 reached 1.0 was poured to infect with the Escherichia coli cells each of the recombinant phages isolated from plaques and allowed to stand still at 37° C. for 12 hours to proliferate phages. The culture solution (10 μL) containing these phages was diluted in 90 μL of TBS buffer (50 mM Tris-HCl, 150 mM NaCl, pH 7.4) to prepare measurement samples.
The measurement samples were poured to MEDISORP 96 well microplate (Nunc) and allowed to stand still for one hour to allow the phage to physically adsorb to the plate. After the supernatant was removed, SuperBlock (registered trade mark) T20 (TBS) Blocking Buffer (Thermo […]) (150 μL) was poured to the plate and allowed to stand still for one hour to block the surface of the plate. The plate was washed three times with TBS-T buffer (50 mM Tris-HCl, 150 mM NaCl, 0.1% Tween 20 (registered trade mark), pH 7.4). To the plate, TBS-T buffer (100 μL) containing an Fc region (Jackson ImmunoResearch Laboratories, Inc.) (0.2 μg/mL) labeled with horseradish peroxidase (HRP) was added and allowed to stand still for one hour. After the plate was washed three times with TBS-T buffer, ABTS One Component HRP Microwell Substrate (BioFX) (100 μL) was poured to the plate. Binding activity was detected through a color reaction. The absorbance at 415 nm (O.D.415) was measured by a microplate absorbance reader Sunrise R (TECAN GROUP LTD.). TBS-T buffer containing no phages was used as a negative control in a control experiment.
ELISA results of the recombinant phages displaying polypeptides containing amino acid sequences represented by SEQ ID NOs: 2 to 9 and the recombinant phages displaying polypeptides containing amino acid sequences represented by SEQ ID NOs: 11 to 19 are shown in Table 2A and Table 2B, respectively.

human IgG = conditions: competitive reaction with protein A; read-out: competitive inhibitory capacity Ki; cited from earlier work
IgG [2] = conditions: Non Patent Literature 4; read-out: equilibrium dissociation constant, KD; cited from earlier work
[3] = molecular target: T1, Fc region prepared by digesting human monoclonal antibody IgG with papain (Homo sapiens, UniProt P01857); assay: Surface plasmon resonance, polypeptides on immobilized Fc region prepared from human monoclonal IgG (Example 2, 3) and 4); Example 8); format: binding
T1 construct: The Fc region to be immobilized to a sensor chip was prepared, by digesting human monoclonal antibody IgG with papain; made in house; host or cells: papain digest of human monoclonal IgG (Pierce Fab Preparation Kit), then MabSelect SuRe, HiTrap DEAE and Superdex 200
Method: The polypeptides, which were previously synthesized in an organic chemical manner were purchased from bio[…], were diluted with HBS-T buffer and controlled so as to have a concentration of 500, 400, 300, 200 or 100 nM. The surface plasmon resonance test was performed by using Biacore T100 (GE Healthcare). The Fc region to be immobilized to a sensor chip was prepared, by digesting human monoclonal antibody IgG with papain, in accordance with the instruction attached to Pierce (registered trade mark) Fab Preparation Kit (Thermo […]), followed by purifying by affinity chromatography using MabSelect SuRe (GE Healthcare), HiTrap DEAE anion exchange chromatography (GE Healthcare) and gel filtration chromatography using Superdex 200 (GE Healthcare). The Fc region prepared was immobilized to Sensor Chip CM5 (GE Healthcare) by the amine coupling method. The binding activity of the synthesized peptides prepared was measured and equilibrium dissociation constants were determined. Data were processed by use of Biacore TOO Evaluation Software (GE Healthcare).
4) In this section, it will be stated as an example that the binding activity of a polypeptide consisting of an amino acid sequence (referred to as p17) of SEQ ID NO: 57 was measured by surface plasmon resonance. The polypeptide was prepared by cleaving thioredoxin fusion protein p17_trx consisting of the amino acid sequence of SEQ ID NO: 86 with a protease and removing a thioredoxin portion. Since the thioredoxin fusion protein, which is produced by expression vector pET-48b (Novagen), has an HRV 3C protease cleavage site in the amino acid sequence, the desired polypeptide ligated to the C terminal can be obtained by use of protease.
DNA (SEQ ID NO: 124) encoding the thioredoxin fusion protein (SEQ ID NO: 86) containing p17 was synthesized by PCR and introduced to an expression vector, pET-48b (Novagen). Using the expression vector and in accordance with the same procedure as in Example, 1, 5), the thioredoxin fusion protein was prepared. The thioredoxin fusion protein (40 mg) was digested with 100 units of HRV 3C Protease (Novagen) at 4° C. under the reaction conditions according to the accompanying manual. The digested product was diluted in a 6 M guanidine hydrochloride solution and purified by gel filtration chromatography using Superdex Peptide 10/300 GL (GE Healthcare). Subsequently reverse phase chromatography using μRPC C2/C18 ST 4.6/100 (GE Healthcare) was performed to prepare a polypeptide p17 consisting of an amino acid sequence of SEQ ID NO: 57.
Subsequently, the binding activity of p17 prepared was measured by surface plasmon resonance by use of Biacore T100 (GE Healthcare).
Subsequently, the binding activity of five types of polypeptides prepared above was analyzed by surface plasmon resonance. Biacore T100 (GE Healthcare) was used in measurement. […]

[4] = molecular target: human Fc region manufactured by Jackson ImmunoResearch Laboratories, Inc.; assay: Surface plasmon resonance, synthetic polypeptides on immobilized human Fc region (Example 1, 4); format: binding; conditions: synthetic polypeptide, 25° C., HBS-T buffer pH 7.4
Method: The polypeptides previously synthesized in an organic chemical manner were purchased from bio[…]. Biacore T100 (GE Healthcare) was used as a surface plasmon resonance measurement apparatus. The human Fc region manufactured by Jackson ImmunoResearch Laboratories, Inc. was immobilized to Sensor Chip CM5 (GE Healthcare) in accordance with an amine coupling method using an Amine Coupling Kit (GE Healthcare). […] The binding activity of these polypeptides was measured at a reaction temperature of 25° C. The measurement data were processed by Biacore TOO Evaluation Software (GE Healthcare).

rabbit IgG = conditions: Non Patent Literature 5; cited from earlier work
Sequence of rabbit IgG (P01870 101-323 limits assumed): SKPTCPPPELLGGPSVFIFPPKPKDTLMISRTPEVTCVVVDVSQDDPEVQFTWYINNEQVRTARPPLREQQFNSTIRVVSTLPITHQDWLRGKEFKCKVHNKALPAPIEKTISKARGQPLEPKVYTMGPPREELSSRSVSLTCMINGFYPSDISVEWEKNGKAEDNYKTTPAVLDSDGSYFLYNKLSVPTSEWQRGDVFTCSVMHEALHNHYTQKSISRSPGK

IgG [5] = conditions: domains by themselves; Non Patent Literature 28 and 29; cited from earlier work
[6] = synthetic polypeptide, read-out: equilibrium dissociation constants KD
[7] = variant polypeptide with alanine substitution, read-out: Equilibrium dissociation constant of p17 variant KD
[8] = read-out: equilibrium dissociation constant KD

3 (YDPGTGTWRSYLRFGGG; IgG binding peptide, H3) [compound 3]
O.D. 415 ([1]; control 0.08): 0.278

4 (YDPYTGTWRSSIWVLSG; IgG binding peptide, D5) [compound 4]
O.D. 415 ([1]; control 0.08): 0.165

5 (YDPGTGTWRSWLSFNVG; IgG binding peptide, E7) [compound 5]
O.D. 415 ([1]; control 0.08): 0.155

6 (YDPWTGTWRSFIWGGGG; IgG binding peptide, sC12) [compound 6]
O.D. 415 ([1]; control 0.08): 0.149

7 (YDPRTGTWLLYASRLLG; IgG binding peptide, G3) [compound 7]
O.D. 415 ([1]; control 0.08): 0.214

8 (YDPVTGTWTSSIASWMG; IgG binding peptide, G11) [compound 8]
O.D. 415 ([1]; control 0.08): 0.223

9 (YDPRTGTWRRSSLSYSG; IgG binding peptide, sA7) [compound 9]
O.D. 415 ([1]; control 0.08): 0.193

12 (AGSRRAHGYDPRTGTWRSSIAYGGG; IgG binding peptide, 2A4) [compound 12]
O.D. 415 ([1]; control 0.101): 0.267

14 (SWRRRGSSYDPRTGTWRSSIAYGGG; IgG binding peptide, 2H1) [compound 14]
O.D. 415 ([1]; control 0.101): 0.282

15 (TGRGRSARYDPRTGTWRSSIAYGGG; IgG binding peptide, 2F2) [compound 15]
O.D. 415 ([1]; control 0.101): 0.396

16 (HWVNGRSGYDPRTGTWRSSIAYGGG; IgG binding peptide, 2F4) [compound 16]
O.D. 415 ([1]; control 0.101): 0.373

18 (GSVVRWRGYDPRTGTWRSSIAYGGG; IgG binding peptide, 2F7) [compound 18]
O.D. 415 ([1]; control 0.101): 0.36

19 (GAVYRRSFYDPRTGTWRSSIAYRGG; IgG binding peptide, 2F9) [compound 19]
O.D. 415 ([1]; control 0.101): 0.353

Asp Cys Ala Trp His Leu Gly Glu Leu Val Trp Cys Thr [Fc-III]
Ki (human IgG): 100 nM | Kd (IgG [2]): 185 nM

DAAWHLGELVWATYYDPETGTWAPDWRLMQGQ [SEQ ID NO: 25]
Kd [3, 6]: 510 nM

DAAWHLGELVWATYYDPETGTWLPDWQTMAQK [SEQ ID NO: 26]
Kd [3, 6]: 100 nM

DAAWHLGELVWATYYDPETGTWQPDWLYMTTR [SEQ ID NO: 24]
Kd ([3]; synthetic polypeptide, read-out: KD): 120 nM

GPGISAFSPGRGVYDPETGTWYDAAWHLGELVWATYYDPETGTWEADWQRMLGQ [SEQ ID NO: 174]
Kd [3, 7]: 5.6 nM

GPGISAFSPGRGVYDPETGTWYDAAWHLGELVWATYYDPETGTWEPAWQRMLGQ [SEQ ID NO: 175]
Kd [3, 7]: 45 nM

GPGISAFSPGRGVYDPETGTWYDAAWHLGELVWATYYDPETGTWEPDAQRMLGQ [SEQ ID NO: 176]
Kd [3, 7]: 200 nM

GPGISAFSPGRGVYDPETGTWYDAAWHLGELVWATYYDPETGTWEPDWQAMLGQ [SEQ ID NO: 177]
Kd [3, 7]: 7.8 nM

GPGISAFSPGRGVYDPETGTWYDAAWHLGELVWATYYDPETGTWEPDWQRMLGQ [SEQ ID NO: 57]
Kd ([3]; polypeptide obtained by protease cleavage of p17_trx, read-out: KD): 1.6 nM | Kd ([3]; polypeptide obtained by protease cleavage of p17_trx, read-out: equilibrium dissociation constant KD): 1.6 nM

GVVRQWSGGGGSGGGGRSSIAYGGG [SEQ ID NO: 21]
Kd [4, 8]: 23000 nM

RSSIAYGGG [SEQ ID NO: 22]
Kd ([4]; read-out: KD): 110000 nM | Kd [4, 8]: 110000 nM

peptide from a synthesized branched tetrapolypeptide library (Arg Thr Xaa)4 Lys2 Lys Gly, competitively works with protein A (Fassina et al.) [TG19318]
Kd (rabbit IgG): 300 nM

protein A: IgG-binding protein derived from Staphylococcus, conventionally used
Kd (IgG [5]): ~10 nM

protein G: bacteria-derived natural IgG-binding protein, conventionally used
Kd (IgG [5]): ~490 nM
